Experimental findings from patent US4719211A, “2,3,4,9-tetrahydro-2-heteroarylalkyl-1H-pyrido(3,4-B)indoles having antihypertensive properties” (American Home Products Corporation, priority 1986, dated 1988) are described below.

Structures can show the parent of a compound that is named as a salt.

For experiment [1], the system named is spontaneously hypertensive rat (SHR). Kind of experiment: Antihypertensive effect: change in systolic blood pressure in spontaneously hypertensive rats (tail plethysmography). The format is in vivo. As to the method:
The systolic blood pressure of male conscious, spontaneously hypertensive rat (SHR) (Taconic Farms) is measured by indirect tail plethysmography using a system designed and built by Narco Bio-Systems-(Model MK-IV). Groups consisting of 4 rats receive a single oral dose of the test compound. Rats are warmed in a heated chamber at 38° C. for 10 minutes prior to measurement of systolic pressure to increase the accuracy of measurements.
The systolic pressure and heart rate data are collected in an Hewlett Packard 88 computer. Data are grouped and summarized, with the mean change in pressure and heart rate at each time period calculated.
Unless otherwise noted, the compound was tested in the form in which it was obtained in the example.

A further experiment deals with rats. Kind of experiment: Conditioned avoidance response procedure (response lever). The class given is in vivo. To be noted: ip, rat, i.p.; for ED50: read-out: AB50 (dose producing 50% block in avoidance responding). On the procedure: In conditioned avoidance response type procedures, the effect of the drug on the subject animals previously trained ability to avoid and/or escape a shock is measured. […] If the compound blocks the subject animal's ability to escape the shock, then the compound is judged to have a sedative effect.
In this procedure, rats trained previously are placed in plexiglass experimental chambers equipped with a response lever, house light, and sonalert. A steel grid floor is wired for presentation of electric shock. Each trial consists of a fifteen-second warning tone (conditioned stimulus), continuing for an additional fifteen seconds accompanied by electric shock, (unconditioned stimulus). The rat can terminate a trial at any point by depression of the response lever. A response during the initial fifteen-second warning tone ends the trial before shock delivery and is considered an avoidance response, while a response occuring during shock delivery is an escape response. Trials are presented on a variable interval schedule of two minutes. The session consists of sixty trials. Animals are run two to three times weekly with control sessions always preceding a drug run, and with at least one day intervening, compounds are administered i.p. (p.o., s.c.) at appropriate pre-treatment times to a minimum of five to six rats at each dose level over a range of doses.
The following experimental parameters are recorded by computer: (1) the number of intertrial interval responses, (2) the number of avoidance responses, (3) the number of escape responses, and (4) the number of trials in which no response occured.
Response counts are summed over all subjects at a given dose. […] This number is expressed as a percentage of the total trials. Control performance is assumed to be 100% for avoidance and escape responding and the dose calculated to produce a 50% block in avoidance responding (AB50) is obtained from a dose-effect regression line fitted by the method of least squares. […] If both AB50 's and EB20 's can be calculated, a dose ratio can be determined according to the following formula: […]

Experiment [2] has as its target T1, limbic D-2 dopamine receptor (Rattus norvegicus, UniProt P61169).
T1 construct: Limbic brain tissue (nucleus accumbens, septal area, olfactory tubercle) is dissected and homogenized on ice; from tissue; host or cells: rat limbic brain tissue (nucleus accumbens, septal area, olfactory tubercle), washed membrane homogenate
Kind of experiment: Inhibition of limbic D-2 dopamine receptor binding (3H-spiroperidol, rat limbic brain homogenate). To be noted: 0.3 nM 3H-spiroperidol, read-out: Ki (and 95% confidence interval). On the procedure:
Several rats are decapitated and the brains are rapidly removed. […] The homogenate is then diluted 4-fold with buffer and centrifuged at 30,000×g for 20 min, and the supernatant is discarded. The pellet is resuspended in the same volume of buffer and recentrifuged as before, again discarding the supernatant. This pellet is then resuspended in the same volume of buffer used in the homogenization, and the protein content of this preparation is assayed by the Lowry method. The homogenate is stored frozen at -70° C. until use.
The vials are then counted in a Packard 460CD scintillation counter.
Specific binding is defined as total binding less binding in the presence of 1 μM (+)butaclamol. Binding in the presence of various concentrations of test drug is expressed as a percent of specific binding when no drug is present. […] Linear regression analysis then yields a straight line with 95% confidence limits from which an IC50 can be inversely predicted. Ki (inhibition constant) for the test drug is then calculated by the formula: [formula]

A further experiment relates to male CF-1 mice. In words: Antagonism of apomorphine-induced stereotyped behavior in mice. The format is in vivo, mouse. Conditions: apomorphine 10 mg/kg s.c. On the procedure: In the second procedure, the compound's (drug's) abiltiy to antagonize apomorphine-induced stereotyped behavior in mice is measured. In the procedure, 20-25 g male CF-1 mice (Charles River) are tested one week before the experiment for a positive stereotyped response to 10 mg/kg s.c. apomorphine. Test compounds, suspended or solubilized in 0.25% Tween 80 ® in water, are administered at several dose levels to male mice (6/dose level). A control group, run simultaneously with drug groups, receives equal volumes of solvent. Thiry minutes later (i.p. administration) or 60 minutes later (p.o administration), drug-treated and control mice are challenged with 10 mg/kg apomorphine s.c. Five minutes after the injection, the rearing-head-bobbing-licking syndrome induced by apomorphine is recorded as present or absent for each animal. Readings are repeated every 5 minutes during a 30 minute test session. The number of positive or negative 5-minute intervals during which apoomorphine-induced stereotyped behavior is present or absent. ED50 values (with 95% confidence intervals) are calculated for inhibition of apomorphine-inducedstereotyped behavior, by a simple linear regression analysis with inverse prediction.

The mark [3] stands for this setting: SHR, single oral dose 50 mg/kg, 1.5 hrs.
Where [4] appears, read: SHR, single oral dose 50 mg/kg, 4 hrs.
[5] abbreviates: SHR, single oral dose 10 mg/kg, 1.5 hrs.
Setting [6] is: SHR, single oral dose 10 mg/kg, 4 hrs.

T1 sequence (P61169 whole entry): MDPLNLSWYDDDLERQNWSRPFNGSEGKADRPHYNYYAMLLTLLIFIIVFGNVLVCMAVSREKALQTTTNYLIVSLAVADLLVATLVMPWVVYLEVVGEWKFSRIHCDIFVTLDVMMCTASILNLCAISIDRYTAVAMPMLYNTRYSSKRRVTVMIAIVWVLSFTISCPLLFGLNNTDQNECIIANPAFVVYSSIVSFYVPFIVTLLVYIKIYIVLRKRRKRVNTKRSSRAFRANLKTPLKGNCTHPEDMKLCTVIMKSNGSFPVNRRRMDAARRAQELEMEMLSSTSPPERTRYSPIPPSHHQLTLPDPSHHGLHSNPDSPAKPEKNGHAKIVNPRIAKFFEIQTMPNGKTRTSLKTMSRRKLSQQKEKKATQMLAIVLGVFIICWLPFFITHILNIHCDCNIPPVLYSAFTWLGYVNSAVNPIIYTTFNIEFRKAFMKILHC

As for `Cl.Cl.c1ccc2nc(CN3CCc4c([nH]c5ccccc45)C3)ccc2c1` [2,3,4,9-tetrahydro-2-(2-quinolinylmethyl)-1H-pyrido[3,4-b]-indole, dihydrochloride, reference compound], the “Change in Blood Pressure” value in experiment [1] (50 mg/kg, time not stated, did not lower blood pressure significantly) is -10 mm Hg.

With `c1ccc2c3c([nH]c2c1)CN(Cc1ccncc1)CC3` [Example 1, 2,3,4,9-Tetrahydro-2-(4-Pyridinylmethyl)-1H-Pyrido-[3,4-b]Indole, Dihydrochloride Hemihydrate], the entries for the “Change in Blood Pressure” value in experiment [1] (setting [3]) and in experiment [1] (setting [4]) were -27 mm of Hg and -35 mm of Hg, respectively.

With `Cl.Cl.c1ccc2c3c([nH]c2c1)CN(CCc1ccncc1)CC3` [Example 2, 2,3,4,9-Tetrahydro-2-[2-(4-Pyridinyl)ethyl]-1H-Pyrido[3,4-b]Indole, Dihydrochloride], the “Change in Blood Pressure” value is reported as -73 mm of Hg in experiment [1] (setting [5]); -30 mm of Hg in experiment [1] (setting [6]); -18 mm of Hg in experiment [1] (SHR, single oral dose 25 mg/kg, 1.5 hrs.); -58 mm of Hg in experiment [1] (SHR, single oral dose 25 mg/kg, 4 hrs.); -79 mm of Hg in experiment [1] (setting [3]); -57 mm of Hg in experiment [1] (setting [4]).

On to `Cl.Cl.O.c1ccc2c3c([nH]c2c1)CN(CCCCCCCc1ccncc1)CC3` [Example 3, 2,3,4,9-Tetrahydro-2-[7-(4-Pyridinyl)heptyl]-1H-Pyrido[3,4-b]Indole, Dihydrochloride Hydrate], for which the “Change in Blood Pressure” value is -44 mm of Hg in experiment [1] (setting [3]) and -58 mm of Hg in experiment [1] (setting [4]).

As to `Cl.Cl.c1ccc2c3c([nH]c2c1)CN(CCCCc1ccncc1)CC3` [Example 4, 2,3,4,9-Tetrahydro-2-[4-(4-Pyridinyl)butyl]-1H-Pyrido[3,4-b]Indole Dihydrochloride], the ED50 with rats worked out at 14.1 mg/kg. Moreover, the “Change in Blood Pressure” value in experiment [1] (setting [5]) was -43 mm of Hg; in experiment [1] (setting [6]) it was -39 mm of Hg; in experiment [1] (setting [3]), -105 mm of Hg; in experiment [1] (setting [4]), -115 mm of Hg.

For `Cl.Cl.c1ccc2nc(CCN3CCc4c([nH]c5ccccc45)C3)ccc2c1` [Example 5, 2,3,4,9-Tetrahydro-2-[2-(2-Quinolinyl)ethyl]-1H-Pyrido[3,4-b]Indole Dihydrochloride], the minimal effective dose in the experiment on rats (read-out: dose down to which the avoidance response is blocked in a dose dependant manner) is not above 15 mg/kg. Further, the Ki in experiment [2] was 166 nM. Besides, the “Change in Blood Pressure” value is on record as -25 mm of Hg in experiment [1] (setting [5]), -98 mm of Hg in experiment [1] (setting [3]) and -84 mm of Hg in experiment [1] (setting [4]). The ED50 in the experiment with male CF-1 mice (Mus musculus, ip, read-out: ED50 for inhibition of apomorphine-induced stereotyped behavior) is 18 mg/kg. In addition, in the experiment with male CF-1 mice (i.p., Dihydrochloride), the “ED50 for inhibition of apomorphine-induced stereotyped behavior” value is recorded as 20.37 mg/kg.

As to `Cl.Cl.c1ccc2c(CCCCN3CCc4c([nH]c5ccccc45)C3)ccnc2c1` [Example 6, 2,3,4,9-Tetrahydro-2-[4-(4-Quinolinyl)butyl]-1H-Pyrido[3,4-b]Indole, Dihydrochloride], in experiment [1] (setting [3]), the “Change in Blood Pressure” value was -94 mm of Hg.

Take `Cl.Cl.c1ccc2c3c([nH]c2c1)CN(CCc1cnccn1)CC3` [Example 7, 2,3,4,9-Tetrahydro-2-[2-(2Pyrazinyl)ethyl]-1H-Pyrido[3,4-b]Indole, Dihydrochloride]: the “Change in Blood Pressure” value in experiment [1] (SHR, single oral dose 5 mg/kg, 1.5 hrs.) is listed as -14 mm of Hg; in experiment [1] (setting [3]) it was -110 mm of Hg; in experiment [1] (setting [4]), -104 mm of Hg.

On to `Cl.Cl.c1ccc2nc(CCCCN3CCc4c([nH]c5ccccc45)C3)ccc2c1` [Example 8, 2,3,4,9-Tetrahydro-2-[4-(2-Quinolinyl)butyl]1H-Pyrido[3,4-b]Indole, Dihydrochloride], for which the ED50 in the experiment with rats turned out to be 31 mg/kg.

On to `c1ccc(CCN2CCc3c([nH]c4ccccc34)C2)nc1` [Example 9, 2,3,4,9-Tetrahydro-2-[2-(2-Pyridinyl)ethyl]-1H-pyrido[3,4-b]-indole, Dihydrochloride.], for which the ED50 in the experiment with rats came out at 22.6 mg/kg.

For the compound `Cl.Cl.c1cncc(CCCN2CCc3c([nH]c4ccccc34)C2)c1` [Example 13, 2,3,4,9-Tetrahydro-2-[3-(3-Pyridinyl)propyl]1H-pyrido[3,4-b]indole, dihydrochloride], the ED50 in the experiment on rats came to 20.9 mg/kg.
